pEC50: −log10 of the molar value. Like-named read-outs stand apart in the source and are kept apart here. Non-standard residues stand in square brackets, D forms with d. Residues, ends and D or L forms follow the SMILES beside them. 1Nal = N[C@@H](Cc1cccc2ccccc12)C(=O)O; β3hI = CC[C@H](C)[C@H](N)CC(=O)O; β3hK = NCCCC[C@H](N)CC(=O)O; hSer = N[C@@H](CCO)C(=O)O; Nle = CCCC[C@H](N)C(=O)O; Aib = CC(C)(N)C(=O)O
Assays:
[1] = target: T1, human PTH-1 receptor (Homo sapiens, UniProt Q03431); test: Reporter gene assay (CRE-luciferase) for agonist activity in transiently transfected HEK-293 cells; type: cell-based; conditions: for hPTHR-2/hPTHR-1: selectivity for hPTH-1 receptor over hPTH-2 receptor
T1 construct: expressed in transfected cells; host or cells: HEK-293
T1 sequence (Q03431 27-593): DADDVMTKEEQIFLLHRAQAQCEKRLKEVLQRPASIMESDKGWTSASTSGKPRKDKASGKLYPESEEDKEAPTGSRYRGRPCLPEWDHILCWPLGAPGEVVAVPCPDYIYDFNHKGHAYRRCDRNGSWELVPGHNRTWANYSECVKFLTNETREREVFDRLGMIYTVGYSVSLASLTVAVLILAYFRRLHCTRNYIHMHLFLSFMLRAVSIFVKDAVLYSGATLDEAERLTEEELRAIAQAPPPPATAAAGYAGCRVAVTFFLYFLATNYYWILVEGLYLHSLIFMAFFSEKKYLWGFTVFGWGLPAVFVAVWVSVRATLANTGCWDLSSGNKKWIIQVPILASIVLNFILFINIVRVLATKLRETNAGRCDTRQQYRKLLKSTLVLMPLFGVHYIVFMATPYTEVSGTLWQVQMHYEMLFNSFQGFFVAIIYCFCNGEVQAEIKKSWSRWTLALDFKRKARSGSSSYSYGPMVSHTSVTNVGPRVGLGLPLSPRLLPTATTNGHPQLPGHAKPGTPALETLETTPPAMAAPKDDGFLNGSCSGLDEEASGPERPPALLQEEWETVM
How it was run: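 Selectivity came from luciferase transcriptional reporter assays expressing human PTH-2 receptor. PTH-1 agonism used transiently transfected HEK-293 cells carrying SV40-promoter receptor and cAMP-responsive-element luciferase; 4-5 h compound exposure, lysis, luminescence, non-linear-regression EC50/efficacy; ≥3 independent runs, PTH (1-34) control each.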

[2] = target: T2, human PTH-2 receptor (Homo sapiens, UniProt P49190); test: Luciferase-based transcriptional reporter gene assay for selectivity; type: cell-based
T2 construct: expressed in transfected cells
T2 sequence (P49190 25-550): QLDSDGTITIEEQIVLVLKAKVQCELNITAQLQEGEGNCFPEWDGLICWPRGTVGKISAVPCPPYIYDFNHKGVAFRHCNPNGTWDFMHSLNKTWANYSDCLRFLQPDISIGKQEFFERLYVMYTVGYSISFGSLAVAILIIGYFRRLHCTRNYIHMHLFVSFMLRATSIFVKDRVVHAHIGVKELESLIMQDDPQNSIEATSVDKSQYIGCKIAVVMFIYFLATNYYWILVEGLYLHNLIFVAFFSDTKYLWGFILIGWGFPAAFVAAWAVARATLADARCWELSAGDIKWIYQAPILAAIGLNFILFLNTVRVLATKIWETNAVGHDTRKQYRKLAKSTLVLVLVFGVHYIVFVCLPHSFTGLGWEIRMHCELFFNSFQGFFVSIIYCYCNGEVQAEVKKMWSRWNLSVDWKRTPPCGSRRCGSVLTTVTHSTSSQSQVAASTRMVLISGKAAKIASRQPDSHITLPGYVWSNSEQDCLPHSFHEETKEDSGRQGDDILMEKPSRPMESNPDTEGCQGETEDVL
Description: Agonist activity of compounds on the human PTH-1 receptor was determined in a reporter gene assay by transiently transfecting HEK-293 cells with plasmids encoding human PTH-1 receptor under control of the SV40 promoter and a luciferase reporter gene under control of cAMP responsive elements (CRE). See Himmler et al, J. Recept. Res. 13 (1993) 79-94, for further guidance on this assay. Transfected cells were exposed to serial dilutions of compounds for 4-5 hours followed by lysis of cells, determination of luciferase activity, and determination of compound efficacies and EC50 values through non-linear regression.
PTH (1-34) was used as an internal control in each experiment and compounds were tested in at least three independent experiments. To determine selectivity, compounds were tested in luciferase-based transcriptional reporter gene assays expressing the human PTH-2 receptor.

| SMILES | pEC50 [1] | hPTHR-2/hPTHR-1 ([1]; Table 3, ratio of EC50 values) | pEC50 [2] | Selectivity hPTHR-2/hPTHR-1 ([1]; Table 4 comparison data, ratio of EC50 values) | pEC50 ([1]; Table 3, HEK-293 cells, CRE-luciferase, 4-5 hours exposure, read-out: hPTHR-1 EC50) | pEC50 ([2]; Table 3, luciferase reporter gene assay, read-out: hPTHR-2 EC50) |
| --- | --- | --- | --- | --- | --- | --- |
| CCCC[C@H](NC(=O)[C@H](CC(C)C)NC(=O)[C@H](CCC(N)=O)NC(=O)[C@@H](NC(=O)[C@H](CCC(=O)O)NC(=O)[C@H](CO)NC(=O)[C@@H](NC(=O)[C@@H](N)CO)C(C)C)[C@@H](C)CC)C(=O)N[C@@H](Cc1c[nH]cn1)C(=O)N[C@@H](CO)C(=O)N[C@@H](CC(C)C)C(=O)NCC(=O)N[C@@H](CCCCN)C(=O)N[C@@H](Cc1c[nH]cn1)C(=O)N[C@@H](CC(C)C)C(=O)N[C@@H](CCCCN)C(=O)N[C@@H](CO)C(=O)N[C@H](CC(=O)N[C@@H](CCC(=O)O)C(=O)N[C@@H](CCCNC(=N)N)C(=O)N[C@H](C(=O)N[C@@H](CCC(=O)O)C(=O)N[C@@H](Cc1cccc2ccccc12)C(=O)N[C@@H](CC(C)C)C(=O)N[C@@H](CCCNC(=N)N)C(=O)N[C@@H](CCCCN)C(=O)N[C@@H](CC(C)C)C(=O)N[C@@H](CC(C)C)C(=O)N[C@@H](CCC(N)=O)C(=O)N[C@@H](CCCNC(=N)N)C(=O)N[C@H](C(=O)N[C@@H](Cc1c[nH]cn1)C(=O)N[C@@H](CCC(=O)O)C(=O)N[C@@H](CCC(=O)O)C(N)=O)C(C)C)C(C)C)[C@@H](C)CC [SEQ ID NO: 44, [Nle^8, Ser^10, Lys^16, β-hIle^18,1-Nal^23, Leu^27, Arg^30, Glu^33, Glu^34] hPTH (1-34)-NH2] (H-SVSEIQL[Nle]HSLGKHLKS[β3hI]ERVE[1Nal]LRKLLQRVHEE-NH2) | 10.40 | 154 | 8.22 | – | – | – |
| CCCC[C@H](NC(=O)[C@H](CC(C)C)NC(=O)[C@H](CCC(N)=O)NC(=O)[C@@H](NC(=O)[C@H](CCC(=O)O)NC(=O)[C@H](CO)NC(=O)[C@@H](NC(=O)C(C)(C)N)C(C)C)[C@@H](C)CC)C(=O)N[C@@H](Cc1c[nH]cn1)C(=O)N[C@@H](CC(N)=O)C(=O)N[C@@H](CC(C)C)C(=O)NCC(=O)N[C@@H](CCCCN)C(=O)N[C@@H](Cc1c[nH]cn1)C(=O)N[C@@H](CC(C)C)C(=O)N[C@@H](CC(N)=O)C(=O)N[C@@H](CO)C(=O)N[C@H](CC(=O)N[C@@H](CCC(=O)O)C(=O)N[C@@H](CCCNC(=N)N)C(=O)N[C@H](C(=O)N[C@@H](CCC(=O)O)C(=O)N[C@@H](Cc1cccc2ccccc12)C(=O)N[C@@H](CC(C)C)C(=O)N[C@@H](CCCNC(=N)N)C(=O)N[C@@H](CCCCN)C(=O)N[C@@H](CC(C)C)C(=O)N[C@@H](CC(C)C)C(=O)N[C@@H](CCC(N)=O)C(=O)N[C@@H](CC(=O)O)C(=O)N[C@H](C(=O)N[C@@H](Cc1c[nH]cn1)C(=O)N[C@@H](CC(N)=O)C(=O)N[C@@H](Cc1ccccc1)C(N)=O)C(C)C)C(C)C)[C@@H](C)CC [SEQ ID NO: 36, [Aib^1, Nle^8, β-hIle^18,1-Nal^23, Leu^27] hPTH (1-34)-NH2] (H-[Aib]VSEIQL[Nle]HNLGKHLNS[β3hI]ERVE[1Nal]LRKLLQDVHNF-NH2) | 10.40 | 372 | 7.80 | 372 | – | – |
| CCCC[C@H](NC(=O)[C@H](CC(C)C)NC(=O)[C@H](CCC(N)=O)NC(=O)[C@@H](NC(=O)[C@H](CCC(=O)O)NC(=O)[C@H](CO)NC(=O)[C@@H](NC(=O)[C@@H](N)CO)C(C)C)[C@@H](C)CC)C(=O)N[C@@H](Cc1c[nH]cn1)C(=O)N[C@@H](CC(N)=O)C(=O)N[C@@H](CC(C)C)C(=O)NCC(=O)N[C@@H](CCCCN)C(=O)N[C@@H](Cc1c[nH]cn1)C(=O)N[C@@H](CC(C)C)C(=O)N[C@@H](CC(N)=O)C(=O)N[C@@H](CO)C(=O)N[C@H](CC(=O)N[C@@H](CCC(=O)O)C(=O)N[C@@H](CCCNC(=N)N)C(=O)N[C@H](C(=O)N[C@@H](CCC(=O)O)C(=O)N[C@@H](Cc1cccc2ccccc12)C(=O)N[C@@H](CC(C)C)C(=O)N[C@@H](CCCNC(=N)N)C(=O)N[C@@H](CCCCN)C(=O)N[C@@H](CC(C)C)C(=O)N[C@@H](CC(C)C)C(=O)N[C@@H](CCC(N)=O)C(=O)N[C@@H](CCCNC(=N)N)C(=O)N[C@H](C(=O)N[C@@H](Cc1c[nH]cn1)C(=O)N[C@@H](CC(N)=O)C(=O)N[C@@H](Cc1ccccc1)C(N)=O)C(C)C)C(C)C)[C@@H](C)CC [SEQ ID NO: 35, [Nle^8, β-hIle^18,1-Nal^23, Leu^27, Arg^30] hPTH (1-34)-NH2] (H-SVSEIQL[Nle]HNLGKHLNS[β3hI]ERVE[1Nal]LRKLLQRVHNF-NH2; N-terminus assumed) | 9.74 | 40 | 8.15 | – | – | – |
| CCCC[C@H](NC(=O)[C@H](CC(C)C)NC(=O)[C@H](CCC(N)=O)NC(=O)[C@@H](NC(=O)[C@H](CCC(=O)O)NC(=O)[C@H](CO)NC(=O)[C@@H](NC(=O)C(C)(C)N)C(C)C)[C@@H](C)CC)C(=O)N[C@@H](Cc1c[nH]cn1)C(=O)N[C@@H](CC(N)=O)C(=O)N[C@@H](CC(C)C)C(=O)NCC(=O)N[C@@H](CCCCN)C(=O)N[C@@H](Cc1c[nH]cn1)C(=O)N[C@@H](CC(C)C)C(=O)N[C@@H](CC(N)=O)C(=O)N[C@@H](CO)C(=O)N[C@@H](CCOC)C(=O)N[C@@H](CCCCN)CC(=O)N[C@@H](CCCNC(=N)N)C(=O)N[C@H](C(=O)N[C@@H](CCC(=O)O)C(=O)N[C@@H](Cc1cccc2ccccc12)C(=O)N[C@@H](CC(C)C)C(=O)N[C@@H](CCCNC(=N)N)C(=O)N[C@@H](CCCCN)C(=O)N[C@@H](CC(C)C)C(=O)N[C@@H](CC(C)C)C(=O)N[C@@H](CCC(N)=O)C(=O)N[C@@H](CC(=O)O)C(=O)N[C@H](C(=O)N[C@@H](Cc1c[nH]cn1)C(=O)N[C@@H](CC(N)=O)C(=O)N[C@@H](Cc1ccccc1)C(N)=O)C(C)C)C(C)C [SEQ ID NO: 47, [Aib^1, Nle^8, hSer(OMe)^18, β-hLys^19,1-Nal^23, Leu^27] hPTH (1-$$4)-NH2] (H-[Aib]VSEIQL[Nle]HNLGKHLNS[hSer](Me)[β3hK]RVE[1Nal]LRKLLQDVHNF-NH2) | – | 51 | – | – | 10.30 | 8.52 |
| CCCC[C@H](NC(=O)[C@H](CC(C)C)NC(=O)[C@H](CCC(N)=O)NC(=O)[C@@H](NC(=O)[C@H](CCC(=O)O)NC(=O)[C@H](CO)NC(=O)[C@@H](NC(=O)C(C)(C)N)C(C)C)[C@@H](C)CC)C(=O)N[C@@H](Cc1c[nH]cn1)C(=O)N[C@@H](CO)C(=O)N[C@@H](CC(C)C)C(=O)NCC(=O)N[C@@H](CCCCN)C(=O)N[C@@H](Cc1c[nH]cn1)C(=O)N[C@@H](CC(C)C)C(=O)N[C@@H](CCCCN)C(=O)N[C@@H](CO)C(=O)N[C@H](CC(=O)N[C@@H](CCC(=O)O)C(=O)N[C@@H](CCCNC(=N)N)C(=O)N[C@H](C(=O)N[C@@H](CCC(=O)O)C(=O)N[C@@H](Cc1cccc2ccccc12)C(=O)N[C@@H](CC(C)C)C(=O)N[C@@H](CCCNC(=N)N)C(=O)N[C@@H](CCCCN)C(=O)N[C@@H](CC(C)C)C(=O)N[C@@H](CC(C)C)C(=O)N[C@@H](CCC(N)=O)C(=O)N[C@@H](CCCNC(=N)N)C(=O)N[C@H](C(N)=O)C(C)C)C(C)C)[C@@H](C)CC [SEQ ID NO: 45, [Aib^1, Nle^8, Ser^10, Lys^16, β-hIle^18,1-Nal^23, Leu^27, Arg^30] hPTH (1-31)-NH2] (H-[Aib]VSEIQL[Nle]HSLGKHLKS[β3hI]ERVE[1Nal]LRKLLQRV-NH2) | 10.05 | 72 | 8.22 | – | – | – |
| CCCC[C@H](NC(=O)[C@H](CC(C)C)NC(=O)[C@H](CCC(N)=O)NC(=O)[C@@H](NC(=O)[C@H](CCC(=O)O)NC(=O)[C@H](CO)NC(=O)[C@@H](NC(=O)[C@@H](N)CO)C(C)C)[C@@H](C)CC)C(=O)N[C@@H](Cc1c[nH]cn1)C(=O)N[C@@H](CO)C(=O)N[C@@H](CC(C)C)C(=O)NCC(=O)N[C@@H](CCCCN)C(=O)N[C@@H](Cc1c[nH]cn1)C(=O)N[C@@H](CC(C)C)C(=O)N[C@@H](CCCCN)C(=O)N[C@@H](CO)C(=O)N[C@H](CC(=O)N[C@@H](CCC(=O)O)C(=O)N[C@@H](CCCNC(=N)N)C(=O)N[C@H](C(=O)N[C@@H](CCC(=O)O)C(=O)N[C@@H](Cc1cccc2ccccc12)C(=O)N[C@@H](CC(C)C)C(=O)N[C@@H](CCCNC(=N)N)C(=O)N[C@@H](CCCCN)C(=O)N[C@@H](CC(C)C)C(=O)N[C@@H](CC(C)C)C(=O)N[C@@H](CCC(N)=O)C(=O)N[C@@H](CCCNC(=N)N)C(=O)N[C@H](C(N)=O)C(C)C)C(C)C)[C@@H](C)CC [SEQ ID NO: 49, [Nle^8, Ser^10, Lys^16, β-hIle^18,1-Nal^23, Leu^27, Arg^30] hPTH (1-31)-NH2] (H-SVSEIQL[Nle]HSLGKHLKS[β3hI]ERVE[1Nal]LRKLLQRV-NH2) | 10.10 | 87 | 8.15 | – | – | – |

Reference: patent US20110195900A1, “PEPTIDIC PTH RECEPTOR AGONISTS” (FERRING B.V., priority 2008, published 2011)
